Measurements from patent publication US11591368B2, “Peptides for cancer treatment” (CHUNG SHAN MEDICAL UNIVERSITY, priority 2017, dated 2023).
Where a SMILES comes first, the peptide text is derived from it. Where no end group is shown, it is not given here. The star is where a group is joined. Fmoc = O=C(OCC1c2ccccc2-c2ccccc21)*

Key:
CL1-5 lung cancer cells = test: Tumor growth in xenograft animal model; assay type: in vivo
Method: Six-week old immune deficient BALB/CAnN.Cg-Foxn1nu/CrlBltw mice were housed in individual ventilated chambers (IVC). A total of 2×10^6 CL1-5 lung cancer cells in 100 μL PBS were mixed with 100 μL of 10× Matrigel. The lung cancer cells/Matrigel mix was injected subcutaneously to the lower back of the mice. Three days later, the mice were treated with 0, 10, 20, or 30 nmol of Fmoc-LT-1-3 subcutaneously everyday. The Fmoc-LT-1-3 peptide was dissolved in 100% DMSO and diluted to the desired concentration in PBS from day 3 to day 17. On the 18th day, we observed that 80% of control group animal, 40% of 10 nmol group animal, 20% of 20 nmol group animal, and 40% of 30 nmol group animal developed tumor. Percent of tumor free animal increased with increasing level of Fmoc-LT1-3 between 10 nmol and 20 nmol. […] This phenomenon may be due to lower solubility of Fmoc-LT1-3 at higher concentration. We thus decided to replace the solvent from DMSO with γ-CD, and diluted the peptide to the desired concentration for injection on the 18th day and thereafter. The volume of tumor was measured periodically. […] On the 39th day, animals were sacrificed. The tumor and organs were weighted, fixed and embedded in paraffin. Embedded tissue were sectioned and stained with hematoxylin-eosin for histologic analysis.

CL1-5 cells [1] = assay type: in vivo, mice
Method: CL1-5 cells were washed, detached, and resuspended in PBS. Subsequently, a single-cell suspension containing 2×10^6 cell in 80 μL PBS was mixed with 20 μL 10× Matrigel (Corning, 5117012). The cell suspension was subcutaneously injected into the upper back of the immune deficient BALB/CAnN.Cg-Foxn1nu/CrlBltw mice. […] The tumor-bearing mice were divided into five groups (n=8/group). […] On day 13, the mice in the Fmoc-LT1-3 group were subcutaneously injected with 20 nmol Fmoc-LT1-3/γ-CD in the lower back daily. […] During the course of each treatment, the tumor volume was measured every 3 days. The mortality rates of mice were recorded, which included mice with tumor volume over 1500 mm^3. The percent of survival rate is recorded in FIG. 11 and the median survival of each group is calculated in Table 1.

CL1-5 cells [2] = test: Cell proliferation assay in CL1-5 cells; assay type: cell-based; settings: for growth inhibition (cell proliferation): Fmoc modified peptides, 24 h, FIG. 1 and FIG. 2; for Growth inhibition: LT fragments at 0, 12.5, 25 and 50 μM
Method: The peptides described below were Fmoc modified and dissolved in DMSO and […] and then used in cell proliferation assay. CL1-5 cells were cultured to 80% confluence in RPMI medium containing 10% FBS. After detachment, 3×10^4[…]cells were seeded onto 12-well plates. After 16 h of incubation, cells were either harvested before treatment (designated as 0 h), or treated with LT peptides for 24 h (designated 24 h), and viable cells were counted. Relative fold-change in cell number or percent increase in cell growth (%) was calculated by following formula: (Cell number24h−Cell number0h)/(Cell number of control24h−Cell number of control0h).

CL1-5 cells [3] = test: Cell invasion assay (Matrigel-coated modified Boyden chamber) in CL1-5 cells; assay type: cell-based; settings: for Invasion inhibition: LT fragments at 0, 12.5, 25 and 50 μM, FIG. 12
Method: Fmoc-LT1-3 peptides were used in cell invasion assay. A 24-well modified Boyden chamber with a polycarbonate membrane (8-μm pore size) was used for in vitro invasion assays. […] CL1-5 cells (3×10^4 cells/well) in RPMI medium with various concentrations of peptide were seeded onto the upper chamber. […] After 24 h of incubation, the cells were fixed with ice-cold 100% methanol and stained with 10% Giemsa. Following staining, cells on the upper side of the membrane were removed with a cotton swab. The number of invaded cells attached to the lower surface of the polycarbonate membranes was counted under a light microscope. All experiments were performed in triplicate.

H460 = test: Cell proliferation assay in H460 lung cancer cell line; assay type: cell-based; settings: H460, FIG. 4
H1299 = test: Cell proliferation assay in H1299 lung cancer cell line; assay type: cell-based; settings: H1299, FIG. 4
A549 = test: Cell proliferation assay in A549 lung cancer cell line; assay type: cell-based; settings: A549, FIG. 4
H1355 = test: Cell proliferation assay in H1355 lung cancer cell line; assay type: cell-based; settings: H1355, FIG. 4

Molecule | growth inhibition (cell proliferation) (CL1-5 cells [2]; CL1-5 cells) | Growth inhibition (CL1-5 cells [2]; CL1-5 cells) | Invasion inhibition (CL1-5 cells [3]) | further results
CC[C@H](C)[C@H](NC(=O)[C@H](Cc1c[nH]cn1)NC(=O)[C@H](Cc1ccccc1)NC(=O)OCC1c2ccccc2-c2ccccc21)C(=O)N[C@H](C(=O)N[C@@H](CCC(=O)O)C(=O)N[C@@H](CC(C)C)C(=O)N[C@@H](CC(C)C)C(=O)N[C@@H](C)C(=O)O)C(C)C [Fmoc-LT1-3] (Fmoc-FHIVELLA-OH; N-terminus and C-terminus assumed) | – | – | – | histologic analysis, toxicity (CL1-5 lung cancer cells; hematoxylin-eosin stained tissue, day 39): did not reveal obvious toxicity; relative weight of organs (CL1-5 lung cancer cells; treatment groups vs control group, day 39, FIG. 9): no significant differences; effect on cisplatin-induced toxicity (CL1-5 cells [1]; combination treatment with cisplatin vs cisplatin only group): alleviate cisplatin-induced toxicity
O=S(=O)(NCCNC/C=C/c1ccc(Br)cc1)c1cccc2cnccc12 [H89, reference compound] | – | – | – | LT-peptide-mediated growth inhibition together with PKA inhibitor (H89) (CL1-5 cells [2]; CL1-5 cells, FIG. 24): enhances growth inhibition activity
N.N.[Cl][Pt][Cl] [cisplatin, reference compound] | – | – | – | Median survival (CL1-5 cells [1]; single agent: cisplatin 4 mg/kg IP weekly 4 times, or 20 nmol Fmoc-LT1-3/γ-CD s.c. daily): 37.5 days
AHIVELLA (Fmoc-AHIVELLA) [LT-A1, Fmoc modified in the proliferation assay] | better inhibition activity than F-moc-LT1-3 peptide | – | – | –
ASAIYSVETINDGNFHIVELLA [LT-1] | – | inhibitory effect and Yes | inhibitory effect and Yes | –
FAIVELLA (Fmoc-FAIVELLA) [LT-A2, Fmoc modified in the proliferation assay] | better inhibition activity than F-moc-LT1-3 peptide | – | – | –
FHIAELLA (Fmoc-FHIAELLA) [LT-A4, Fmoc modified in the proliferation assay] | better inhibition activity than F-moc-LT1-3 peptide | – | – | –
FHIVEALA (Fmoc-FHIVEALA) [LT-A6, Fmoc modified in the proliferation assay] | better inhibition activity than F-moc-LT1-3 peptide | – | – | –
FHIVELAA (Fmoc-FHIVELAA) [LT-A7, Fmoc modified in the proliferation assay] | better inhibition activity than F-moc-LT1-3 peptide | – | – | –
Fmoc-LT-A3: Fmoc binds to N terminal of FHAVELLA (SEQ ID NO:10) (Fmoc-FHAVELLA) | best growth inhibition capability | – | – | growth inhibition in lung cancer cell lines (H460): greatly inhibited; growth inhibition in lung cancer cell lines (H1299): partially inhibited; growth inhibition in lung cancer cell lines (A549): no effect; growth inhibition in lung cancer cell lines (CL1-5 cells [2]; CL1-5, FIG. 4): greatly inhibited; growth inhibition, dose effect experiment (CL1-5 cells [2]; Fmoc-LT-peptides, CL1-5 cells, FIG. 3): best growth inhibition capability; cell invasion inhibition (CL1-5 cells [3]; Fmoc peptides, 24 h, FIG. 5): inhibited cell invasion; growth inhibition in lung cancer cell lines (H1355): greatly inhibited
GGMPGKSNVASLRQAPGQNGTSF [LT-4] | – | No | inhibitory effect on cell invasion only and Yes | –
KIITNLSKQSTLNFDSPLYVGG [LT-3] | – | No | inhibitory effect on cell invasion only and Yes | –
LRQAPGQNGTSFHGCIRNLYINSE [LT-5] | – | No | inhibitory effect on cell invasion only and Yes | –
